Experimental data from patent US9963451B2, “Fused ring pyrimidine compound and pest control agent containing the same” (Mitsui Chemicals Agro, Inc., priority 2013, dated 2018).

Key:
Assay type in all cases: in vivo
[1] = tested on: Laodelphax striatellus; assay: whole plant or invertebrate; settings: Laodelphax striatellus, in Oryza sativa, 144 h, read-out: Insect death ratio (%)
Experimental: (§1) Insecticidal Test Against Laodelphax striatellus
A chemical solution diluted to have a pre-determined concentration was sprayed to young rice plant (breed: Koshihikari) followed by air drying. Then, it was added to a glass test tube (diameter of 3 cm and height of 10 cm) added with water together with ten 3-stage larvae of Laodelphax striatellus. The tube was then covered. The number of living insects was determined after 6 days and the dead insect ratio was calculated. There were two series, i.e., 10 insects per group. Meanwhile, in Table 29, when combination of two types of test chemicals are used (i.e., A and B), the combination of the two types was described as A+B, and in the concentration column (ppm), it was described as concentration of A+concentration of B.

[2] = tested on: Myzus persicae; assay: Test Example 12: insecticidal test against Myzus persicae (leaf spray on young white radish plant, single and combined chemicals); settings: after 5 days
Experimental: Insecticidal Test Against Myzus persicae
A chemical solution which has been diluted to have a pre-determined concentration was sprayed on a leaf part of young white radish plant having 1-stage larvae Myzus persicae present thereon. After air drying, they were left to stand in an incubator at 25° C. and the numbers of living insects and dead insects were examined after 5 days (2 series). Meanwhile, in Table 32, when combination of two types of test chemicals are used (i.e., A and B), the combination of the two types was described as A+B, and in the concentration column (ppm), it was described as concentration of A+concentration of B.

[3] = tested on: Nilaparvata lugens; assay: Test Example 3: insecticidal test against Nilaparvata lugens (spray on young rice plant); settings: after 6 days
Experimental: Insecticidal Test Against Nilaparvata lugens
2.5 ml of acetone solution prepared to have the test compound at the pre-determined concentration described in the following Table 28 was sprayed to young rice plant followed by air drying. Then, it was added to a glass bottle (diameter of 3 cm and height of 13 cm) added with water. Ten sensitive Nilaparvata lugens (3-stage) were released therein, and then the bottle was covered with a cap. After keeping them in an incubator at 25° C., the numbers of living insects and dead insects were determined after 6 days (two series). Meanwhile, as a comparative compound, imidacloprid was used.

[4] = tested on: Nilaparvata lugens; assay: as above; settings: after 6 days; remark: listed apart in the source
[5] = tested on: Laodelphax striatellus; assay: Test Example 14: insecticidal test against Laodelphax striatellus (spray on young rice plant, comparison with Reference Examples 3 and 4); settings: after 6 days
Experimental: as §1
A young rice plant (breed: Koshihikari) was sprayed with a chemical solution which has been diluted to a pre-determined concentration followed by air drying. Then, it was added to a glass test tube (diameter of 3 cm and height of 10 cm) added with water, together with ten Laodelphax striatellus larvae (3-stage), and then the tube was covered with a cap. The number of dead insects was determined after 6 days and the insect death ratio was calculated. There were two series, i.e., 10 insects per group.
Meanwhile, as a comparative compound, Reference Example 3 disclosed in the pamphlet of International Publication No. 2013/144088 and Reference Example 4 with C═O position different from the present compound were used.

[6] = tested on: Nilaparvata lugens; assay: Test Example 13: insecticidal test against Nilaparvata lugens using paddy field rice cultivating box (granule treatment); settings: for Adult insect death ratio (%): adults released 22 days after treatment, after 5 days; for Number of larvaes (number of insects): next generation larvae after 22 days
Experimental: Insecticidal Test Against Nilaparvata lugens Using Paddy Field Rice Cultivating Box
A rice plant (breed: Koshihikari) cultivated in cultivating box was treated with granules with a pre-determined chemical amount, and it was transplanted in two pots, i.e., four plants per 1/5000a pot. Twenty-two days after the treatment, 10 female adults of Nilaparvata lugens were released and the young plants were covered with a mesh. Then, the insect death ratio was determined after 5 days. In addition, the number of the next generation larvae was determined after 22 days. There were two series. Meanwhile, in Table 33, when combination of two types of test chemicals (i.e., A and B), the combination of the two types was described as A+B, and in the chemical amount column (g a.i./box), it was described as chemical amount of A+chemical amount of B.

[7] = tested on: Pyricularia oryzae; assay: whole plant or invertebrate; settings: Pyricularia oryzae, 168 h, read-out: Rice blast control value
[8] = tested on: Chilo suppressalis; assay: Test Example 10: insecticidal test against Chilo suppressalis (rice stem dip, single and combined chemicals); settings: Chilo suppressalis, 144 h; 100 ppm, after 6 days; read-out: Insect death ratio (%)
Experimental: Insecticidal Test Against Chilo suppressalis
A stem part was cut from a rice plant (breed: Koshihikari) cultivated in water and it was immersed in a chemical solution which has been diluted to have a pre-determined concentration. After air drying, it was put into a 9 cm polyethylene cup having a water-wetted filter paper laid on the bottom thereof, and 3-stage larvae of Chilo suppressalis were released and covered. They were left to stand in an incubator at 25° C., and the numbers of living insects and dead insects were examined after 6 days. There were two series, i.e., 5 insects per group. Meanwhile, in Table 30, when combination of two types of test chemicals are used (i.e., A and B), the combination of the two types was described as A+B, and in the concentration column (ppm), it was described as concentration of A+concentration of B.

Compound: CN/C(=N/CC1CCOC1)N[N+](=O)[O-] (stereo not shown) [Dinotefuran, dinotefuran]
- pest or weed control at 1 ppm [1]: 45%
- Insect death ratio (%) ([2]; 10 ppm): 75%

Compound: N#CCNC(=O)c1cnccc1C(F)(F)F [Flonicamid, flonicamid]
- Insect death ratio (%) ([2]; 1 ppm): 79%

Compound: O=[N+]([O-])NC1=NCCN1Cc1ccc(Cl)nc1 [Imidacloprid, imidacloprid, reference compound]
- Sensitive insect death ratio (%) ([3]; 10 ppm spray): 100%
- Sensitive insect death ratio (%) ([3]; 100 ppm spray): 100%
- pest or weed control at 0.1 ppm ([1]; 0.1 ppm, after 6 days): 30%
- Insect death ratio (%) ([2]; 1 ppm): 100%
- Resistant insect death ratio (%) ([4]; 10 ppm spray): 21.7%
- Resistant insect death ratio (%) ([4]; 100 ppm spray): 50.4%

Compound: CC(C)CC(C)c1sccc1NC(=O)c1cn(C)nc1C(F)(F)F (stereo not shown) [Penthiopyrad, penthiopyrad]
- Insect death ratio (%) ([2]; 100 ppm): 13%

Compound: CC1=NNC(=O)N(/N=C/c2cccnc2)C1 [Pymetrozine, pymetrozine]
- pest or weed control at 10 ppm ([1]; 10 ppm, after 6 days): 30%
- Insect death ratio (%) ([2]; 1 ppm): 89%

Compound: CC(=O)N1C(=O)N(NCc2cccnc2)Cc2cc(C(F)(C(F)(F)F)C(F)(F)F)ccc21 [Pyrifluquinazon, pyrifluquinazon]
- Insect death ratio (%) ([2]; 1 ppm): 100%

Compound: CSc1nc2n(Cc3ccc(Br)nc3)ccc(=O)n2n1 [Reference Example 3, 4-((6-bromopyridin-3-yl)methyl)-2-(methylthio)-[1,2,4]triazolo[1,5-a]pyrimidin-7(4H)-one, reference compound]
- Insect death ratio (%) ([5]; 100 ppm): 21%

Compound: CSc1nc2n(Cc3ccc(Cl)nc3)c(=O)cc(C)n2n1 [Reference Example 4, 4-((6-chloropyridin-3-yl)methyl)-7-methyl-2-(methylthio)-[1,2,4]triazolo[1,5-a]pyrimidin-5(4H)-one, reference compound]
- Insect death ratio (%) ([5]; 1000 ppm): 40%

Compound: C[Si](C)(C)CC(O)(Cn1cncn1)c1ccc(F)cc1 (stereo not shown) [Simeconazole, simeconazole, reference compound]
- Adult insect death ratio (%) ([6]; 2.25 g a.i./box granules): 20%
- Number of larvaes (number of insects) ([6]; 2.25 g a.i./box granules): 69 number of insects

Compound: CN1COCN(Cc2cnc(Cl)s2)/C1=N\[N+](=O)[O-] [Thiamethoxam, thiamethoxam]
- Insect death ratio (%) ([2]; 1 ppm): 94%

Compound: CSc1nc2n(Cc3ccc(Cl)nc3)c(C)cc(=O)n2n1 [compound 5, 4-((6-chloropyridin-3-yl)methyl)-5-methyl-2-(methylthio)-[1,2,4]triazolo[1,5-a]pyrimidin-7(4H)-one]
- Sensitive insect death ratio (%) ([3]; 10 ppm spray): 100%
- Sensitive insect death ratio (%) ([3]; 100 ppm spray): 100%
- pest or weed control at 3 ppm ([1]; after 6 days): 20%
- pest or weed control at 100 ppm [7]: 0%
- Insect death ratio (%) ([2]; 100 ppm): 73%
- Insect death ratio (%) ([5]; 10 ppm): 100%
- Resistant insect death ratio (%) ([4]; 10 ppm spray): 95%
- Resistant insect death ratio (%) ([4]; 100 ppm spray): 100%
- pest or weed control at 100 ppm [8]: 0%

Compound: CSc1cc2n(Cc3ccc(Cl)nc3)c(C)cc(=O)n2n1 [compound 154, 4-((6-chloropyridin-3-yl)methyl)-5-methyl-2-(methylthio)-pyrazolo[1,5-a]pyrimidin-7(4H)-one]
- Sensitive insect death ratio (%) ([3]; 10 ppm spray): 100%
- Sensitive insect death ratio (%) ([3]; 100 ppm spray): 100%
- pest or weed control at 3 ppm ([1]; after 6 days): 40%
- pest or weed control at 100 ppm [7]: 0%
- Adult insect death ratio (%) ([6]; 2 g a.i./box granules): 90%
- Number of larvaes (number of insects) ([6]; 2 g a.i./box granules): 0 number of insects
- Insect death ratio (%) ([2]; 10 ppm): 70%
- Insect death ratio (%) ([5]; 10 ppm): 100%
- Resistant insect death ratio (%) ([4]; 10 ppm spray): 100%
- Resistant insect death ratio (%) ([4]; 100 ppm spray): 100%
- pest or weed control at 100 ppm [8]: 0%

Compound: lepimectin
- Insect death ratio (%) ([2]; 10 ppm): 88%

Compound: milbemectin
- Insect death ratio (%) ([2]; 10 ppm): 86%
